Test [1] relates to ΔPHO13 strain (S. cerevisiae BY4741X with PHO13 deleted). Type of test: cell-based. As to conditions: for amount of production of ethanol: 80 g/L xylose. The source says:
(§1) A solution obtained by incorporating 80 g/L of xylose into a YP medium (containing 1% of a yeast extract, 2% of peptone, and 0.5% of […]) was used as a material using xylose as a carbon source. […]

The test system of test [2] is S. cerevisiae MN8140X. The settings on record: 100 mM of acetic acid. The text has this: A medium formed of 10 g/L of a yeast extract, 20 g/L of polypeptone, 80 g/L of glucose, and 60 g/L of xylose was used as the solution using glucose and xylose as carbon sources.
Test [3] relates to BY4741X strain (control). Description: Fermentation with xylose as carbon source by the control strain in the presence of a fermentation inhibitor. The format is cell-based, S. cerevisiae. As to conditions: 72 hours.
From the text: as §1

[4] abbreviates: 60 mM of acetic acid, after 24 hours.
Where [5] appears, read: 60 mM of acetic acid, after 72 hours.
Where [6] appears, read: 30 mM of formic acid, after 24 hours.
[7] abbreviates: 30 mM of formic acid, after 72 hours.
[8] abbreviates: 60 mM of furfural versus no furfural, 72 hours.
[9] abbreviates: 90 mM of furfural, after 24 hours.
Where [10] appears, read: 90 mM of furfural, after 72 hours.

Read-outs that look alike come from different tables or passages of the source.

Consider `CC(=O)O` [acetic acid], for which, in test [1], the “resistance of the strain to the fermentation inhibitor in ethanol production using xylose as a carbon source” value is reported as “resistant”. Moreover, the results for the “amount of production of ethanol relative to control (BY4741X strain)” value in test [1] (setting [4]) and in test [1] (setting [5]) were 2.3 times and 1.4 times, respectively. Also, the “amount of production of ethanol” value in test [1] (setting [4]) is recorded as 13 g/L; in test [1] (setting [5]), 20 g/L; in test [2] (fermentation 48 hours, 30° C.) it was “also suppressed”. The “consumption rate of xylose” value is on record as “reduced depending on an acetic acid concentration” in test [1] (acetic acid 0, 30 and 60 mM, 72 hours); “reduced depending on an acetic acid concentration” in test [3] (acetic acid 0, 30 and 60 mM). Moreover, the “action in ethanol production by the yeast” value in test [2] was “showed a fermentation inhibitory action”. For the same compound, in test [2] (fermentation 48 hours, 30° C.), the “consumption of glucose as a carbon source” value is on record as “suppressed”.
For the compound `O=CO` [formic acid], the “resistance of the strain to the fermentation inhibitor in ethanol production using xylose as a carbon source” value in test [1] is recorded as “resistant”. In addition, in test [1] (setting [6]), the “amount of production of ethanol relative to control (BY4741X strain)” value is 4.1 times and the “amount of production of ethanol” value came to 6 g/L. In addition, in test [1] (setting [7]), the “amount of production of ethanol relative to control (BY4741X strain)” value turned out to be 5.5 times and the “amount of production of ethanol” value was found to be 11 g/L. For the same compound, the “xylose consumption and ethanol production versus inhibitor concentration” value in test [1] (formic acid 0, 15 and 30 mM, 72 hours) is recorded as “a tendency similar to that in the case of acetic acid was observed”.
As for `O=Cc1ccco1` [furfural], the “resistance of the strain to the fermentation inhibitor in ethanol production using xylose as a carbon source” value in test [1] was “resistant”. The “consumption rate of xylose” value in test [1] (setting [8]) is listed as “substantially the same as that in the case where furfural was not incorporated”; in test [3] (furfural 60 and 90 mM versus 0 mM), “reduced”. For the same compound, the ethanol-producing ability entry in test [1] (setting [8]) was “effective ethanol production was similarly observed”. The “amount of production of ethanol relative to control (BY4741X strain)” value in test [1] (setting [9]) is 27.5 times; in test [1] (setting [10]) it was 5.5 times. In addition, the “amount of production of ethanol” value stood at 21 g/L in test [1] (setting [9]) and 31 g/L in test [1] (setting [10]).

The values are drawn from US20140120598A1 (priority 2011, published 2014).
